Experiments:
[1] = Cytotoxicity, CellTiter 96 Aqueous (MTS) cell proliferation assay; format: cell-based, human; settings: human, THP-1 cells, 24 h incubation
Description: (§1) Brefelamide, henceforth referred to as compound A ([Kikuchi et al., 2005]), is an aromatic amide isolated from methanol extracts of Dictyostelium brefeldianum and D. giganteum slime mold fruiting bodies; its derivative, henceforth referred to as compound B ([Kikuchi et al., 2005]; [Zhang et al., 2016b]), contains a methyl ether group (-OCH3). Both compounds were dissolved in dimethyl sulfoxide (DMSO) at a concentration of 50 mM and stored at -20°C. Aliquots of the stock solutions were further diluted with appropriate growth medium to the desired concentrations before use. […] THP-1 and 293T cells were seeded in 96-well tissue culture plates at a density of 1.8 × 10^4/well in 90 μl of the appropriate growth medium and incubated for 24 h at 37°C in a humidified 5% CO2 atmosphere. The following day, 10 μl of compounds A and B at concentrations ranging from 0.0001 to 10 mM were added to each well. […] The absorbance at 490 nm was recorded with an ELISA plate reader and the IC50 value was determined by identifying the X-axis value corresponding to one-half of the difference between the maximum and minimum absorbance values using GraphPad Prism v.6 software (GraphPad Inc., San Diego, CA, USA).

[2] = test system: Osteopontin (OPN) in THP-1 cells; assay: OPN protein level in culture supernatant by ELISA, THP-1 cells; format: cell-based, human
Description: (§2) Osteopontin levels in the cell culture supernatant were quantified using an ELISA kit (R&D Systems, Minneapolis, MN, USA) according to the manufacturer’s instructions and as previously reported ([Chagan-Yasutan et al., 2014]). The supernatant was diluted eightfold for THP-1 cells and two–fourfold for 293T cells, and the final value was calculated as [drawing 1] and was expressed as pg/ml/10^6 cells.
(§3) Changes in OPN expression in uninfected THP-1 and 293T cell lines in response to treatment with compounds A and B were assessed. Each well in a 12-well tissue culture plate was seeded with 1.8 × 10^5 cells. After overnight incubation, the compounds were added at final concentrations of 3–100 μM. Cells were harvested 3 days later. OPN mRNA and protein levels were quantified by RT-qPCR and ELISA, respectively, to determine the optimal concentration.
(§4) THP-1 and 293T cells were seeded in a Nunc cell culture tube and a 12-well cell culture plate, respectively, at 1.8 × 10^5/well. After overnight incubation, cells were washed and incubated with fresh medium containing DENV-3 at an MOI of 0.1 or incubated without virus for 1.5 h. The inoculum was then removed and cells were washed twice with fresh medium, and compounds A and B were added at final concentrations of 3, 10, and 30 μM. […] On day 3 post-infection, culture supernatants and cell lysates were collected. Cell viability was evaluated by Trypan Blue exclusion and DENV copy number was determined by RT-qPCR. OPN mRNA and protein levels were quantified by RT-qPCR and ELISA, respectively.

[3] = test system: Osteopontin (OPN) in 293T cells; assay: OPN protein level in culture supernatant by ELISA, 293T cells; format: cell-based, human
Description: as §2, §3
THP-1 and 293T cells were seeded in a Nunc cell culture tube and a 12-well cell culture plate, respectively, at 1.8 × 10^5/well. After overnight incubation, cells were washed and incubated with fresh medium containing DENV-3 at an MOI of 0.1 or incubated without virus for 1.5 h. […] […] On day 3 post-infection, culture supernatants and cell lysates were collected. Cell viability was evaluated by Trypan Blue exclusion and DENV copy number was determined by RT-qPCR. OPN mRNA and protein levels were quantified by RT-qPCR and ELISA, respectively.

DENV-3 [4] = assay: DENV RNA copy number by RT-qPCR in infected THP-1 cells; format: cell-based, Dengue virus-3; settings: 72 h
Description: (§5) Viral copy number in culture supernatants and cell lysates was measured by RT-qPCR as previously described ([Chagan-Yasutan et al., 2013]) using the RNA UltraSense One-Step Quantitative RT-PCR System (Invitrogen, Carlsbad, CA, USA) and Thermal Cycler Dice Real Time System (Takara Bio, Otsu, Japan) according to the manufacturers’ protocols. Primers and hydrolysis probes specific to the 3′ untranslated region of each of the four DENV genotypes have been previously published ([Chagan-Yasutan et al., 2013]). The forward and reverse primers were as follows 5′-[…]-3′ and 5′-[…]-3′ ([Warrilow et al., 2002]). The TaqMan probe was labeled at the 5′ and 3′ ends with a 6-carboxyfluorescein (FAM) reporter and Black Hole quencher (BHQ)-1 (i.e., 5′[FAM]–[…]–[BHQ1]3′). The copy numbers obtained by DENV RT-qPCR were linearly associated with plaque numbers (data not shown).
as §4

DENV-3 [5] = assay: DENV RNA copy number by RT-qPCR in infected 293T cells; format: cell-based, Dengue virus-3; settings: 0.3 μM
Description: as §5
THP-1 and 293T cells were seeded in a Nunc cell culture tube and a 12-well cell culture plate, respectively, at 1.8 × 10^5/well. After overnight incubation, cells were washed and incubated with fresh medium containing DENV-3 at an MOI of 0.1 or incubated without virus for 1.5 h. […] Cell viability was evaluated by Trypan Blue exclusion and DENV copy number was determined by RT-qPCR. OPN mRNA and protein levels were quantified by RT-qPCR and ELISA, respectively.

THP-1 cells = assay: Cytotoxicity, CellTiter 96 Aqueous (MTS) cell proliferation assay; format: cell-based, human; settings: 24 h incubation
Description: as §1

293T cells = assay: as above; format: cell-based, human; settings: 24 h incubation
Description: Both compounds were dissolved in dimethyl sulfoxide (DMSO) at a concentration of 50 mM and stored at -20°C. Aliquots of the stock solutions were further diluted with appropriate growth medium to the desired concentrations before use. […] The following day, 10 μl of compounds A and B at concentrations ranging from 0.0001 to 10 mM were added to each well. After incubation for 24 h, 20 μl per well of 3-(4,5-dimethyl-2-yl)-5-(3-carboxymethoxyphenyl)-2-(4-sulfophenyl)-2H-tetrazolium salt/phenazine methosulfate solution was added to each well, followed by incubation for 4 h. The absorbance at 490 nm was recorded with an ELISA plate reader and the IC50 value was determined by identifying the X-axis value corresponding to one-half of the difference between the maximum and minimum absorbance values using GraphPad Prism v.6 software (GraphPad Inc., San Diego, CA, USA).

OPN mRNA in THP-1 cells = assay: OPN mRNA expression by RT-qPCR in uninfected and DENV-3-infected THP-1 cells; format: cell-based, human; settings: 72 h
Source text: Glyceraldehyde 3-phosphate dehydrogenase (GAPDH) was used as reference gene for normalization of expression levels and was amplified with the following forward and reverse primers: GAPDH-F, 5′-[…]-3′ and GAPDH-R, 5′-[…]-3′. The Taqman probe was as follows: 5′[FAM]–[…]–[BHQ1]3′. A forward and reverse primer set (SPP1-F, 5′-[…]-3′ and SPP1-R, 5′-[…]-3′) and a probe (SPP1-P, 5′-[FAM]–[…] GAAGT–[BHQ1]3′) (Takara Bio) were used to quantify OPN mRNA ([Qin et al., 2015]). The mean fold change in OPN mRNA level was calculated as fold difference = 2^-ΔΔCt.
as §3
THP-1 and 293T cells were seeded in a Nunc cell culture tube and a 12-well cell culture plate, respectively, at 1.8 × 10^5/well. […] Cell viability was evaluated by Trypan Blue exclusion and DENV copy number was determined by RT-qPCR. OPN mRNA and protein levels were quantified by RT-qPCR and ELISA, respectively.

OPN mRNA in 293T cells = assay: OPN mRNA expression by RT-qPCR in uninfected and DENV-3-infected 293T cells; format: cell-based, human; settings: uninfected 293T cells, 3-30 μM, 72 h
[6] = test system: DENV-infected THP-1 cells; assay: Toxicity to DENV-infected THP-1 cells; format: cell-based, human; settings: dose-dependent
Description: as §4

DENV-infected 293T cells = assay: Toxicity to DENV-infected 293T cells; format: cell-based, human; settings: dose-dependent
Description: as §4

astrocytoma cells = test system: astrocytoma cells; set-up: method as in Kikuchi et al., 2005; Honma et al., 2009; settings: by inhibiting ERK phosphorylation; ref Kikuchi et al., 2005; Honma et al., 2009; cited from earlier work
[7] = DENV-infected THP-1 cells, MOI 0.1, 3 days

CCC(C)(C)C(=O)O[C@H]1C[C@@H](C)C=C2C=C[C@H](C)[C@H](CC[C@@H]3C[C@@H](O)CC(=O)O3)[C@H]21 [simvastatin, reference compound]
IC50 at 24 h [1]: 14.1 µM
OPN levels in supernatant [2, 7]: had no effect
OPN production ([3]; DENV-infected 293T cells, 0.3 μM): suppressed OPN production
Virus replication (DENV RNA copy number) (DENV-3 [4]; THP-1 culture supernatant, 0.3-1 μM): had no effect
Viral replication (DENV RNA) (DENV-3 [5]; 293T cell lysates): inhibited viral replication
Viral replication (DENV RNA) (DENV-3 [5]; 293T culture supernatant): inhibited viral replication

Nc1c(Oc2ccc(O)cc2)cccc1C(=O)CCNC(=O)c1ccc(O)cc1 [compound A, Brefelamide]
IC50 (THP-1 cells): 102 µM
IC50 (293T cells): 32.2 µM
OPN mRNA expression (OPN mRNA in THP-1 cells; DENV-infected THP-1 cells, MOI 0.1, 3-30 μM): inhibited OPN mRNA expression in a dose-dependent manner
OPN mRNA expression (OPN mRNA in THP-1 cells; uninfected THP-1 cells, 3-30 μM): had no effect
OPN mRNA levels (OPN mRNA in 293T cells): reduced OPN mRNA levels
OPN level in supernatant after treatment ([2]; DENV-infected THP-1 cells, 10 μM compound, 3 days, infected control 67848.9): 12247.9 pg/ml/10^6 cells
OPN levels in supernatant [2, 7]: dose-dependent reduction
OPN levels in supernatant ([2]; uninfected THP-1 cells, 3 days): had no effect
OPN expression (protein, supernatant) ([3]; DENV-infected 293T cells, MOI 0.1, 3 days): did not inhibit
OPN expression (protein, supernatant) ([3]; uninfected 293T cells, 3 days): did not inhibit
Suppression of DENV RNA levels relative to the control (DENV-3 [4]; THP-1 cell culture supernatant, 10 μM): 75%
Suppression of DENV RNA levels (DENV-3 [4]; THP-1 cell lysates, 10 μM): not lysates
Toxic concentration [6]: > 30 µM
Toxic concentration (DENV-infected 293T cells): > 30 µM
Proliferation of astrocytoma cells (astrocytoma cells): suppressed the proliferation

— publication PMC5370276, “Induction of Osteopontin by Dengue Virus-3 Infection in THP-1 Cells: Inhibition of the Synthesis by Brefelamide and Its Derivative” (Frontiers in Microbiology, 2017)
